Results published in patent US20080187937A1, “Method For Measuring Dynamics Of Self-Assembling Systems Of Biological Molecules In Vivo And Uses For Discovering Or Evaluating Therapeutic Agents” (priority 2004, published 2008).
Entries after “also recorded” stand apart in the source; their conditions may differ.

What was measured:
microtubules = conditions: fold lower than maximum tolerated therapeutic dose
[1] = test system: MCF-7 human breast cancer cells implanted into nude mice; experiment: 2H label incorporation into tubulin dimers and polymers in implanted MCF-7 tumors in vivo
Description: (§1) The tumors were allowed to grow to approximately 1000 mm^3 […]; mice were then injected intraperitoneally with increasing doses of paclitaxel. ^2H2O (8%) in drinking water was administered for a 24 hr period, resulting in about 5% ^2H enrichment in body water (the balance being metabolic water). Animals were sacrificed 24 hours after drug treatment, and tumor tissue was removed for analysis of ^2H—label incorporation into tubulin dimers and polymers (FIG. 4).
Qualitatively similar effects of paclitaxel were also seen in implanted MCF-7 tumors, though the amount of ^2H—label incorporation was lower than in SW1573 tumors (FIG. 4B).

[2] = test system: sciatic nerve microtubules; experiment: Sciatic nerve microtubule dynamics (2H label incorporation into free tubulin and polymerized microtubules); conditions: higher doses of paclitaxel; tumor-bearing mice (FIG. 6A)
Description: (§4) In order to evaluate neurotoxic effects of paclitaxel, the sciatic nerve was isolated from tumor-bearing mice and ^2H label incorporation into free tubulin was compared with ^2H label incorporation into polymerized microtubuies (FIG. 6). […] To explore this effect further, net changes in the abundance of unpolymerized free tubulin and microtubules was assessed by densitometric analysis (FIG. 6B).

[3] = test system: SW1573 human lung cancer cells; experiment: 2H2O stable isotope incorporation into tubulin dimers and microtubule polymers in cultured cells; type: cell-based
Description: To determine whether biosynthetic labeling with ^2H2O can reveal MTPA effects on microtubule dynamics in actively proliferating cells, SW1573 human lung cancer cells were cultured and labeled during exponential growth with culture media containing 4% ^2H2O for 2, 6, 12, 24 and 36 hr, respectively. Tubulin dimer and polymer fractions were isolated from post-nuclear supernatants, and tubulin was purified from each fraction to ≧90% purity as determine by SDS-PAGE. After acid hydrolysis, amino acids were derivatized for GC/MS analysis with negative chemical ionization, and ^2H-label incorporation into the alanine derivative was quantified as the increase over natural abundance of the (M+1) mass isotopomer (“^2H—enrichment”; FIG. 3). […] The data support that in actively dividing cells, tubulin dimers and polymers are in a kinetic equilibrium on a time scale of hours. […] This indicates a substantial inhibition of ^2H—tubulin dimer flux into polymer, reflective of the ability of paclitaxel to stabilize microtubules and thus to prevent dynamic instability.

[4] = test system: SW1573 human lung cancer cells implanted into nude mice; experiment: Microtubule dynamics compared to de novo DNA synthesis (cell proliferation) in SW1573 tumors; type: in vivo; conditions: varying doses of paclitaxel; 2H2O for 24 hours (FIG. 5A)
Description: (§2) Microtubule dynamics were expressed as (^2H enrichment in polymer)/(^2H enrichment in dimer). Inhibition of de novo DNA synthesis was quantified as the reduction in ^2H label incorporation into tumor cell DNA. […]
(§3) Various factors can interfere with the actions of paclitaxel in tumors, including alterations in tubulin isotype content, efflux pumps, and in vivo drug metabolism. Regardless of these factors, inhibition of microtubule dynamics, if related to the antiproliferative activity of MTPAs in vivo, should correlate with inhibition of cell proliferation. […] Thus, the inhibition of microtubule dynamics appeared to have a measurable impact on and relation to the in vivo antiproliferative action of MTPAs.

[5] = test system: sciatic nerve microtubules; experiment: Densitometric analysis of free tubulin and microtubule abundance in sciatic nerve; conditions: tumor-bearing mice (FIG. 6B)
Description: as §4

[6] = test system: SW1573 human lung cancer cells implanted into nude mice; experiment: 2H label incorporation into tubulin dimers and polymers in implanted SW1573 tumors in vivo
Description: as §1

[7] = test system: MCF-7 human breast cancer cells implanted into nude mice; experiment: Microtubule dynamics compared to de novo DNA synthesis (cell proliferation) in MCF-7 tumors; type: in vivo; conditions: varying doses of paclitaxel; 2H2O for 24 hours (FIG. 5B)
Description: as §2, §3

[8] = at ≧5 mg/kg i.p., 2H2O for 24 hours (FIG. 4B)
[9] = at ≧5 mg/kg i.p., 2H2O for 24 hours (FIG. 4A)
[10] = increasing doses i.p., 24 hr 2H2O (8%) in drinking water

## CC(=O)O[C@H]1C(=O)[C@@]2(C)[C@H]([C@H](OC(=O)c3ccccc3)[C@]3(O)C[C@H](OC(=O)[C@H](O)[C@@H](NC(=O)c4ccccc4)c4ccccc4)C(C)=C1C3(C)C)[C@]1(OC(C)=O)CO[C@@H]1C[C@@H]2O [paclitaxel]
microtubules
  doses with significant effects on microtubule dynamics, relative to the maximum tolerated therapeutic dose: up to 30 fold
[1]; 5 and 10 mg/kg doses, compared with SW1573 tumors
  paclitaxel-dependent reduction of 2H-label polymer: less pronounced, albeit statistically significant
[1]; [8]
  de novo synthesis of tubulin dimer: increased de novo synthesis of tubulin dimer
  label incorporation into polymer: inhibited label incorporation into polymer
[1]; increasing doses i.p., 24 hr 2H2O
  upregulation of tubulin fractional synthesis over baseline: no significant paclitaxel-induced upregulation of tubulin fractional synthesis over baseline
[2]
  2H label incorporation into polymers (sciatic nerve): increased the label incorporation into polymers
  2H labeling of free tubulin (sciatic nerve): slightly decreasing labeling of free tubulin
[3]; 0.4 µM paclitaxel, 4% 2H2O, 36 hours (FIG. 3B)
  2H-enrichment in labeled polymers: reduced ^2H-enrichment in labeled polymers
[3]; media containing 4% 2H2O, up to 36 hr
  reduction of rate of 2H incorporation into polymers compared to rate of label incorporation into the dimer: 75%
[4]
  relation between inhibition of microtubule dynamics and inhibition of de novo DNA synthesis (tumor cell proliferation): strong relationship; also recorded: strong correlation between inhibition of microtubule dynamic instability and reduction in cell proliferation
[5]
  amount of free tubulin dimers (sciatic nerve, densitometry): slight decrease in free tubulin dimers
[6]; [9]
  de novo synthesis of tubulin dimer: increased de novo synthesis of tubulin dimer
  label incorporation into polymer: inhibited label incorporation into polymer
[6]; [10]
  fractional synthesis of tubulin dimers: fractional synthesis of tubulin dimers increased
  incorporation of 2H-tubulin into microtubules: decreased incorporation of ^2H—tubulin into microtubules in a dose-dependent manner
[7]
  relation between inhibition of microtubule dynamics and inhibition of de novo DNA synthesis (tumor cell proliferation): strong relationship; also recorded: strong correlation between inhibition of microtubule dynamics and reduction in cell proliferation
